Laboratory results from BindingDB's records for doi:10.1016/s0022-2836(03)00399-1 (Celera, 2003).

Assays:
Assay in all cases: Enzyme Assay and Determination of the Inhibition Constants
Serine protease 1 [1] = molecular target: T1, Serine protease 1 (Bos taurus, UniProt P00760)
T1 sequence (P00760 whole entry): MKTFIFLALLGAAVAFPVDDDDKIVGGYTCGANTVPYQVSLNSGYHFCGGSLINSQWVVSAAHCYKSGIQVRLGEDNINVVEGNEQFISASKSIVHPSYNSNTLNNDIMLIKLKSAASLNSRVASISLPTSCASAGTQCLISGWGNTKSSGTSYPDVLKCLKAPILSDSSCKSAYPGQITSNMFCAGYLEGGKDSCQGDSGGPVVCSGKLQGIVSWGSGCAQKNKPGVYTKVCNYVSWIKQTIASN
Protocol: (§1) Each enzyme was assayed with a set of different concentrations of each inhibitor. […] Ki(apparent) values were calculated from enzyme velocity curves using the software package BatchKi (BioKin Ltd, Madison, WI). These apparent inhibition constants were then converted to Ki values by assuming competitive inhibition and using the formula Ki = Ki(apparent)/(1 + S/Km).

[2] = molecular target: Urokinase-type plasminogen activator (Homo sapiens, UniProt P00749)
Protocol: as §1

Coagulation factor X = Coagulation factor X (Homo sapiens, UniProt P00742)
Chain of Coagulation factor X (P00742 41-179 limits assumed): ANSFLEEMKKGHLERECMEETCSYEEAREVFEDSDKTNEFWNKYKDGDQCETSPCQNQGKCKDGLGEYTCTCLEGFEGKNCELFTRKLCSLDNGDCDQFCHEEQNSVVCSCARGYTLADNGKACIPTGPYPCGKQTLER
Chain of Coagulation factor X (P00742 235-488 limits assumed): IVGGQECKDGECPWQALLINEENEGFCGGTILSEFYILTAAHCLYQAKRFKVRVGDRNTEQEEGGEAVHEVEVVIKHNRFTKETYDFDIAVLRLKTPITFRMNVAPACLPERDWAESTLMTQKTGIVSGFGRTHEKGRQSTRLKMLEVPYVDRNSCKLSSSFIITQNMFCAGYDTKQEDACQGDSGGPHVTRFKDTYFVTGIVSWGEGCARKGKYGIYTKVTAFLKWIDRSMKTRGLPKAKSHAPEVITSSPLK
Protocol: as §1

Prothrombin = Prothrombin (Homo sapiens, UniProt P00734)
Protocol: as §1

Serine protease 1 [3] = molecular target: Serine protease 1 (Homo sapiens, UniProt P07477)
Chain of Serine protease 1 (Homo sapiens, UniProt P07477) (P07477 whole entry): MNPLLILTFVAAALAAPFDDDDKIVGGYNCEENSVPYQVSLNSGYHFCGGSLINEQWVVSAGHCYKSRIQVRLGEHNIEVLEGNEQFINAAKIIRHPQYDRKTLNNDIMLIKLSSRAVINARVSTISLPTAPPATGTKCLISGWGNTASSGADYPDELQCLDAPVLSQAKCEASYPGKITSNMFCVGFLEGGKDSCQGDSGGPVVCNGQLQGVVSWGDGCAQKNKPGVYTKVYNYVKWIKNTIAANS
Protocol: as §1

| Structure (SMILES) | Ki (Serine protease 1 [1]; pH 6.1, 22 °C) | Ki [2] | Ki (Coagulation factor X) | Ki (Prothrombin) | Ki (Serine protease 1 [1]; pH 7.5, 22 °C) | Ki (Serine protease 1 [3]) | Ki (Serine protease 1 [1]) | Ki (Serine protease 1 [1]; pH 7.6, 22 °C) | Ki (Serine protease 1 [1]; pH 8.04, 22 °C) |
| --- | --- | --- | --- | --- | --- | --- | --- | --- | --- |
| N=C(N)c1ccc2nc(-c3cc([N+](=O)[O-])ccc3O)[nH]c2c1 [2-{5-[amino(iminiumyl)methyl]-1H-1,3-benzodiazol-2-yl}-4-nitrobenzen-1-olate] | 470 nM | 5100 nM | 7300 nM | 23000 nM | – | – | – | – | – |
| N=C(N)c1cc2nc(-c3cccc(-c4ccccc4)c3O)[nH]c2cc1F [2-{5-[amino(iminiumyl)methyl]-6-fluoro-1H-1,3-benzodiazol-2-yl}-6-phenylbenzen-1-olate] | – | 280 nM | – | – | 230 nM | 12000 nM | – | – | – |
| N=C(N)c1ccc2nc(-c3cc([C@@H](CC(=O)O)C(=O)O)cc(-c4ccccc4)c3O)[nH]c2c1 [(2R)-2-(3-{5-[amino(iminiumyl)methyl]-1H-1,3-benzodiazol-2-yl}-4-oxido-5-phenylphenyl)butanedioate] | – | 120 nM | 1200 nM | 160000 nM | – | 3700 nM | 290 nM | – | – |
| Cc1cc(-c2ccccc2)c(O)c(-c2cc3cc(C(=N)N)ccc3[nH]2)c1 [2-{5-[amino(iminiumyl)methyl]-1H-indol-2-yl}-4-methyl-6-phenylbenzen-1-olate] | – | 340 nM | 180 nM | – | – | 380 nM | – | 15 nM | – |
| N=C(N)c1ccc2[nH]c(-c3cc(Cl)cc(-c4ccccc4)c3O)cc2c1 [2-{5-[amino(iminiumyl)methyl]-1H-indol-2-yl}-4-chloro-6-phenylbenzen-1-olate] | – | 590 nM | 250 nM | 1000 nM | – | 540 nM | 13 nM | – | – |
| N=C(N)c1ccc2[nH]c(-c3ccccc3O)cc2c1 [2-{5-[amino(iminiumyl)methyl]-1H-indol-2-yl}benzen-1-olate] | – | 2900 nM | 2400 nM | 12000 nM | – | 4900 nM | – | – | 600 nM |
| N=C(N)c1ccc2nc(-c3cc([C@@H](CC(=O)O)C(=O)O)ccc3O)[nH]c2c1 [(2R)-2-(3-{5-[amino(iminiumyl)methyl]-1H-1,3-benzodiazol-2-yl}-4-oxidophenyl)butanedioate] | – | – | 10000 nM | > 75000 nM | – | 4400 nM | 10000 nM | – | – |
